Reference: US10267797B2, “Detection of oral microbial virulence factors” (The Procter & Gamble Company, priority 2015, dated 2019)
Read-outs that look alike come from different tables or passages of the source.

Assays:
[1] = tested on: THP-1 cells stimulated by P. gingivalis LPS 1690; test: Inhibition of LPS stimulated cytokine production in THP-1 cells; type: cell-based, human; conditions: 0.3 mM to 9 mM citrulline; 300 ng/ml LPS; 24 hours; IL-6, TNF-α, IL-12p70, IL-10, IL-2, IFN-r, IL-1β (FIG. 26)
Experimental: Citrulline was purchased from Sigma-Aldrich (St. Louis, Mo.). THP1-Dual™ cells were purchased from Invivogen (San Diego, Calif.). Cells were cultured following the manufacturer's instruction, as described in EXAMPLE 11. For treatment, 0.3 mM to 9 mM of citrulline were first added to the culture medium. […] After 24 hours of treatment, media was collected and analyzed for cytokine production using 9-plex kit (Meso Scale Diagnostics Rockville, Md.).

TLR4 = biological target: T1, TLR4 (Homo sapiens, UniProt O00206+Q9Y6Y9); type: cell-based; conditions: for reduction of P. gingivalis LPS activation on the TLR4 reporter system: P. gingivalis LPS 500 ng/ml
T1 construct: host or cells: HEK 293T (HEK-Blue hTLR4)
T1 sequence (Q9Y6Y9 17-160): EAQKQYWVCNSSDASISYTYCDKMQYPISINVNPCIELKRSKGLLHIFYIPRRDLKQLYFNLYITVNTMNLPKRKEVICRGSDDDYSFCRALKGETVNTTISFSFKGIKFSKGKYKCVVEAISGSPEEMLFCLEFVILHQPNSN
T1 sequence (O00206 24-839): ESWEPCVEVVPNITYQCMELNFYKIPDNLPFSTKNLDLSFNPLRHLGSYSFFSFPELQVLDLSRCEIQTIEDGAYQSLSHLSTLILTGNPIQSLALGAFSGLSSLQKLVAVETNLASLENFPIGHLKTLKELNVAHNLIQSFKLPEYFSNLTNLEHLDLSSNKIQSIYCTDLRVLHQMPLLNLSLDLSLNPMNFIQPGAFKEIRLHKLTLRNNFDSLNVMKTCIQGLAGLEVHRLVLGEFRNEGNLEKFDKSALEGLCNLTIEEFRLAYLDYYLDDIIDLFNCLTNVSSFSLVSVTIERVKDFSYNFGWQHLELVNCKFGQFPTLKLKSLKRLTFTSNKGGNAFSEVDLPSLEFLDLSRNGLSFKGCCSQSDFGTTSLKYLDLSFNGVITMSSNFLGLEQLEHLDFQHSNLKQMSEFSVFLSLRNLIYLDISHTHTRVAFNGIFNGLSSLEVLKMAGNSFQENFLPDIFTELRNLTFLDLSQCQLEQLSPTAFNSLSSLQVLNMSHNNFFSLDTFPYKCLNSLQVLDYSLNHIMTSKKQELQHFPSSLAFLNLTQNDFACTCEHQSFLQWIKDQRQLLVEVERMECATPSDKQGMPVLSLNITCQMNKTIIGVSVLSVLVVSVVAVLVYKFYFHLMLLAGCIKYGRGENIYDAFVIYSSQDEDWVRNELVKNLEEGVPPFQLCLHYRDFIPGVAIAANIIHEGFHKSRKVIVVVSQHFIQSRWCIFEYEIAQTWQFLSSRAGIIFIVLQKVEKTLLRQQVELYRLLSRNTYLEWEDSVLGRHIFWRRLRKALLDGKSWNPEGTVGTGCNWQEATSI
Source text: The cell line is named here as TLR4-SEAP. The reporter gene encodes a secreted enzyme, called embryonic alkaline phosphatase or SEAP. The SEAP reporter is placed under the control of the interferon-β minimal promoter fused to five NFkB and AP-1-binding sites. Furthermore, the TLR4-SEAP cell line also contains a CD14 co-receptor gene, which is needed to transfer LPS to TLR4 receptors. The recombinant TLR binds its ligand, or distinct pathogen-associated molecule, initiates a chain of responses, leading to recruitment of NFkB and AP1 transcription factors to the reporter gene promoter, which induce expression of SEAP.
For treatment, wells of a 96-well plate were seeded with 10,000 cells/well in 100 μL of growth medium. […] On day 4, medium was changed to assay medium (90 μl), which is the DMEM medium without fetal calf serum. […] 10 μl of the bacteria, LPS and culture medium of bacterial growth were added to the TLR4-SEAP cells. Samples were taken 24 hours later, following addition of LPS, bacteria, and culture medium. Expression of the reporter gene (SEAP) was quantified with a commercially available kit (SEAP Reporter Gene Assay of Cayman Chemical Co., Ann Arbor, Mich.).
EC50 was calculated using GraphPad Prism software (GraphPad Software, La Jolla, Calif.).
Tests were conducted to understand whether stannous fluoride could reduce LPS's ability to trigger proinflammatory responses in host cells.

E. coli LPS = conditions: 0.63 mM; E. coli LPS 15 μg/ml
TLR2 = TLR2 (Homo sapiens, UniProt O60603); test: TLR2-SEAP reporter gene assay in HEK 293T cells; conditions: P. gingivalis LPS; stannous 1000 uM (FIG. 4)
TLR2, sequence (O60603 21-784): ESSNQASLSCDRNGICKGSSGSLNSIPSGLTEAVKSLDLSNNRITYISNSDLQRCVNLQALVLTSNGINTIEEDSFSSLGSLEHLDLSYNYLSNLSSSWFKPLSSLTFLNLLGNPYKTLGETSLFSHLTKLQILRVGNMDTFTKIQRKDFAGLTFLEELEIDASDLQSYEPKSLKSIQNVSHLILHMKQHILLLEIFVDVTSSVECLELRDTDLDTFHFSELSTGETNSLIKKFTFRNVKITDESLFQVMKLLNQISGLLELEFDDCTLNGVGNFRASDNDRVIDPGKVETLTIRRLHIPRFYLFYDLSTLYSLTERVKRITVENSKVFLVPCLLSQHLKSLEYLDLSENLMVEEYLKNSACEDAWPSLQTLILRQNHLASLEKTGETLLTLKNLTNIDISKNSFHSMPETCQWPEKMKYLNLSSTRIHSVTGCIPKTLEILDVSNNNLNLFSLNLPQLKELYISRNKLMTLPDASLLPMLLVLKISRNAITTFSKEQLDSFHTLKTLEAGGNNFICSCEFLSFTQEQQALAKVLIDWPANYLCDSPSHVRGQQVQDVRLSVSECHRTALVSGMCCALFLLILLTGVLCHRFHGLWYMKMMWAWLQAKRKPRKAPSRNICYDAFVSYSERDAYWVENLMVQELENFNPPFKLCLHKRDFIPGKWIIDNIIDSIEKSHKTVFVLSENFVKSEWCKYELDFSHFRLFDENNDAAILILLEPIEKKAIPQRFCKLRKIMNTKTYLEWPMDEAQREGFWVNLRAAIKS
Source text: The cell line is named here as TLR2-SEAP. The reporter gene encodes a secreted enzyme, called embryonic alkaline phosphatase or SEAP. The SEAP reporter is placed under the control of the interferon-β minimal promoter fused to five NFkB and AP-1-binding sites. Furthermore, a CD14 co-receptor gene was transfected into the reporter gene cells expressing TLR2, as CD14 has been identified as a co-receptor for TLR2 ligands to enhance the TLR response. The CD14 co-receptor is needed to transfer LTA to TLR2 receptors. The recombinant TLR2 binds its ligand, or distinct pathogen-associated molecule, initiates a chain of responses, leading to recruitment of NFkB and AP1 transcription factors to the reporter gene promoter, which induce expression of SEAP.
For treatment with LTA, wells of a 96-well plate were seeded with 10,000 cells/well in 100 μL of growth medium. […] On day 4, medium (100 μL) was changed to DMEM medium without fetal calf serum. […] Samples were taken 24 hours later, following addition of samples. Expression of the reporter gene (SEAP) was quantified with a commercially available kit (SEAP Reporter Gene Assay of Cayman Chemical Co., Ann Arbor, Mich.).

Row | SMILES | effect on P. gingivalis LPS 1690 stimulated proinflammatory cytokine production [1] | level of E. coli induction of TLR-4 (TLR4; 100 ng/ml E. coli LPS, stannous 500 uM or higher (FIG. 3)) | reduction of P. gingivalis LPS activation on the TLR4 reporter system (TLR4; 3.2 mM (FIG. 5)) | reduction of P. gingivalis LPS activation on the TLR4 reporter system (TLR4; […] (FIG. 5)) | Displacement % (E. coli LPS) [%] | level of P. gingivalis induction of TLR-2 (TLR2)
1 | NC(=O)NCCC[C@H](N)C(=O)O [Citrulline] | inhibited | – | – | – | – | –
2 | [F][Sn][F] [Tin (II) fluoride] | – | decreased | about 50% | about 50% | 12.69 | decreased
